From US20230292776A1, “GAS PHASE TREATMENT OF PRODUCE” (priority 2022, published 2023)

Legend:
[1] = tested on: Penicillium digitatum (Pd); test: Antifungal activity of vapor against Penicillium digitatum (Pd) in wounded, infected mandarins; format: in vivo; details: for effect on Pd mold: Example 5, 125 μL, assessed after 6 days
Procedure: Example 1. The antifungal activity of diallyl disulfide (DADS) vapor against Penicillium digitatum (Pd) was tested in mandarins. All samples were wounded by puncturing with a screw and infected by dispensing 1000 Pd spores suspended in 10 μL of water into each wound. The test groups consisted of mandarins that were: untreated; dipped in a solution of 1 g/L of imazalil; and exposed for 72 hours to the vapor of 3 mL of DADS in a Petri dish.
(§1) Example 2. The antifungal activity of allyl isothiocyanate (AITC) and DADS vapor was tested against Pd and Penicillium italicum (Pi) in mandarins. All samples were wounded by puncturing with a screw. Mandarins were infected by dispensing either 1000 Pd spores or 1000 Pi spores suspended in 10 μL into the wound. The test groups consisted of mandarins that were: uninfected and untreated; uninfected and treated by dipping in a solution of 1 g/L of imazalil; infected with Pd and untreated; infected with Pd and exposed to AITC; infected with Pd and exposed to DADS; infected with Pi and untreated; infected with Pi and exposed to AITC; and infected with Pi and exposed to DADS. Exposure to AITC or DADS consisted of exposing the mandarins for 72 hours to the vapor of 3 mL of the respective compound dispensed in a Petri dish.
Example 3. The antifungal activity of a reduced dose of AITC vapor against Pd in mandarins was tested. All samples were wounded by puncturing with a screw. Mandarins were infected by dispensing 1000 Pd spores suspended in 10 μL of water into each wound. The test groups consisted of mandarins that were: uninfected and untreated; infected with Pd and untreated; and exposed to the vapor of 500 μL of AITC in a Petri dish for 72 hours.
Example 4. The antifungal activity of a range of AITC vapor concentrations was tested against Pd in mandarins. All mandarins were wounded by puncturing with a screw and infected by dispensing 1000 Pd spores suspended in 10 μL of water in each wound. The fruit was then placed in an airtight container, a range of AITC volumes were disposed onto a Whatman filter paper disc, the disc was suspended in front of a battery-powered fan, and the container closed for 18 hours. The mandarins were then left at ambient temperature and high humidity for 6 days. The test groups were mandarins that were infected and untreated, and infected and treated with 62.5 μL 125 μL 250 μL and 500 μL on the filter paper disc. […] FIG. 6 is a bar graph showing incidence (% infected) for the test groups.
Example 5. The antifungal activity of a range of AITC vapor exposure times was tested to determine the effects against Pd in mandarins. All samples were wounded by puncturing with a screw. Mandarins were infected by dispensing 1000 Pd spores suspended in 10 μL of water in the wound. The fruit was then placed in an airtight container, 125 μL of AITC was dispensed onto a Whatman filter paper disc, the disc suspended in front of a battery-powered fan, and the container closed for 15 minutes to 2 hours. The test groups were then left at ambient temperature, high humidity, and assessed for Pd mold after 6 days. The test groups consisted of mandarins that were: uninfected and untreated; infected and untreated; infected and treated with 0.5 g/L imazalil; infected, treated with 125 μL of AITC on the filter paper, and exposed to the vapor for 15 minutes, 30 minutes, 1 hour, and 2 hours.

[2] = tested on: Penicillium italicum (Pi); test: Antifungal activity of vapor against Penicillium italicum (Pi) in wounded, infected mandarins; format: in vivo
Procedure: as §1, with “dish. […] DADS vapor reduced the incidence of Pd mold by 85% and Pi mold by 30% compared to the respective untreated/infected test groups. […] Both AITC and DADS were effective at preventing fungal growth. The inhibition from AITC was approximately 100%, with some changes in visible appearance.” for “dish.”

Botrytis cinerea (Bc) = test: Antifungal activity of vapor against Botrytis cinerea (Bc) in grapes; format: in vivo; details: Example 12; vapor of 3 mL in a Petri dish for 72 hours
Procedure: (§2) Example 12. The antifungal activity of AITC and DADS vapor against Botrytis cinerea (Bc) in grapes was tested. All samples were wounded by making a 3 mm deep puncture in the skin. Samples were infected by dispensing 1000 Bc spores suspended in 10 μL of water in the wound. The test groups consisted of grapes that were: uninfected and untreated; infected and untreated; exposed to the vapor of 3 mL of AITC in a Petri dish for 72 hours; and exposed to the vapor of 3 mL of DADS in a Petri dish for 72 hours. FIG. 17 quantifies the infection results. […] Both AITC and DADS vapor were effective at controlling Bc mold. Treatment with AITC can potentially lead to changes in color or flavor of the grapes.

grapes = test: Visible appearance of vapor-treated grapes; format: in vivo, grape
Procedure: as §2

Q: Which Pd infection ([1]; Example 3, mandarins, vapor of 500 μL in a Petri dish for 72 hours) does the source give for C=CCN=C=S [AITC, allyl isothiocyanate] here?
A: Its Pd infection is “substantially prevented Pd infections”.

Q: And the “severity of Pd infection” value ([1]; Example 4, 62.5 μL on filter paper disc, airtight container with fan, 18 hours, 6 days)?
A: Its value is “reduced the severity of infection relative to the untreated group”.

Q: What about the “effect on Pd mold” value ([1]; 15 minute exposure) of the same molecule?
A: Its value is “little effect on Pd mold”.

Q: What about the “effect on Pd mold” value ([1]; 2 hour exposure) of the same molecule?
A: The value was “substantially eliminated the mold”.

Q: And the “inhibition of fungal growth (Pi)” value ([2]; Example 2, 72 hours vapor of 3 mL)?
A: Its value is “approximately 100%”.

Q: And the “Bc mold in grapes” value (Botrytis cinerea (Bc))?
A: The value was “substantially eliminated Bc mold”.

Q: And the “visible appearance of grapes” value (grapes; in vivo)?
A: The value was “darkening of the fruit”.

Q: Which “reduction of the incidence of Pd mold compared to the untreated samples” value ([1]; Example 1, mandarins, 72 hours vapor of 3 mL in a Petri dish) does the source give for C=CCSSCC=C [DADS, diallyl disulfide] here?
A: The value was 95.8%.

Q: And the “reduction of the incidence of Pd mold compared to imazalil treated samples” value ([1]; Example 1, mandarins, 72 hours vapor of 3 mL, imazalil 1 g/L dip)?
A: Its value is 19.1%.

Q: And the “reduction of the incidence of Pd mold compared to untreated/infected test group” value ([1]; Example 2, mandarins, 72 hours vapor of 3 mL in a Petri dish)?
A: Its value is 85%.

Q: And the “reduction of the incidence of Pi mold compared to untreated/infected test group” value ([2]; Example 2, 72 hours vapor of 3 mL in a Petri dish)?
A: Its value is 30%.

Q: What about the “Bc mold in grapes” value (Botrytis cinerea (Bc)) of the same molecule?
A: Its value is “substantially eliminated Bc mold”.

Q: And the “visible appearance of grapes” value (grapes; Example 12, vapor of 3 mL for 72 hours)?
A: Its value is “appeared unchanged”.
